Laboratory results as given in paper PMC6154737, “Leishmanicidal Activity and Structure-Activity Relationships of Essential Oil Constituents” (Molecules : A Journal of Synthetic Chemistry and Natural …, 2017).
In brackets after ≈: the same amount, converted by molar mass. Where two headings read alike, the source gives them in different places.

Columns and labels:
[1] = system: Leishmania amazonensis promastigotes; assay: In vitro leishmanicidal activity (resazurin viability) against promastigotes; type: cell-based; settings: for Activity against L. amazonensis promastigotes in words: concentrations up to 1000.0 μg mL^−1
Protocol: Culture of L. amazonensis (LTCP 9667 obtained by Giudice et al.) promastigotes were maintained at 24 °C in Schneider′s Drosophila medium (Sigma-Aldrich, St. Louis, MO, USA; pH 6.7) supplemented with 10% (v/v) inactivated fetal bovine serum (FBS, Gibco by Thermo Fisher Scientific, Carlsbad, CA, USA), ampicillin 500 mg m^−1, 1% and gentamicin 40 mg mL^−1, 0.1% (Sigma-Aldrich, St. Louis, MO, USA).
Promastigotes of L. amazonensis in log-phase growth were distributed in a 96-well plate (5 × 10^5 cells/well) and treated with the evaluated compounds solubilized in dimethyl sulfoxide (DMSO, Sigma-Aldrich, St. Louis, MO, USA) and diluted in Schneider′s medium in different concentrations (between 0.0 and 1000.0 μg mL^−1) and incubated for 24 h at 24 °C in a biochemical oxygen demand (BOD) incubator. Promastigotes incubated in the absence of test compounds were used as a negative control. Promastigotes treated with Amphotericin B (Sigma-Aldrich, St. Louis, MO, USA) were used as a positive control. The cellular viability of the parasites was evaluated using the colorimetric method of resazurin, adapted from Kulshrestha et al.. Briefly, after the treatment time, 50 μL of resazurin (2 mM mL^−1 in phosphate-buffered saline (PBS)) (Sigma-Aldrich, St. Louis, MO, USA) was added per well and the plates were again incubated for 6 h at 24 °C, then read in a spectrophotometer (Synerg H1, Biotek, Winooski, VT, USA) at 570 and 595 nm. Absorbance was used to calculate cell viability based on the following equation:(1) Viability (%)=Abs.570 nm−(Abs.595 nm × RO) test/Abs.570 nm –(Abs.595 nm × RO) control × 100 wherein:(2) RO= OD medium with resazurin in 570 nm−OD medium without resasurin in 570 nm/OD medium with resazurin in 595 nm−OD medium without resazurin in 595 nm
The IC50 values were obtained by a non-linear regression analysis from the viability values using the GraphPad Prism 5.0 program. All experiments were performed in triplicate from three independent experiments and the data were expressed as mean ± standard deviation (±SD).

[2] = Cytotoxicity on L929 fibroblasts (MTT assay); type: cell-based; settings: mouse, MTT, mean ± SD; for viability at 24 h, 50 µg mL^−1: 50 µg mL^−1, 24 h; for viability at 24 h, 100 µg mL^−1: 100 µg mL^−1, 24 h
Protocol: (§1) Culture of the mouse fibroblast cell line (L929, ATCC CCL-1) were maintained in Dulbecco′s Modified Eagle Medium (DMEM, Sigma-Aldrich, St. Louis, MO, USA) supplemented with 10% heat-inactivated FBS and 1% streptomycin/penicillin (5000 units + 5 mg mL^−1, Sigma-Aldrich, St. Louis, MO, USA), and kept in a humid atmosphere at 37 °C and 5% CO2.
(§2) Fibroblasts were distributed in 96-well plates (2 × 10^4 cells/well) and incubated for 24 h in a 5% CO2 atmosphere at 37 °C. After this period, the medium was removed and the adhered cells were treated with the compounds at concentrations of 50.0 and 100.0 μg mL^−1 for 24 h under the same incubation conditions. Untreated cells were used as controls and considered with 100% cell viability. After the treatment period, cell viability was determined by MTT assay as described in ISO 10993-5 [50], with modifications. For this, the cell monolayer was washed twice with PBS (pH 7.4), and then 200 μl MTT (0.5 mg mL^−1 in PBS, Sigma-Aldrich, St. Louis, MO, USA) was added to each well. The plates were again incubated under the same conditions as listed above, for a period of 3 h. After the incubation time, the MTT was aspirated and the formazan crystals were solubilized in 200 μL of DMSO. After 10 min, the optical density (OD) was measured on a microplate reader at the wavelength of 570 nm. The results were expressed as percentage of viability according to the following equation:(3) Viability=Absorbance (treated cell)/Absorbance (control cell) × 100
(§3) Each experiment was conducted in quadruplicate and repeated at least three times. Data were expressed as mean ± standard deviation (±SD).

L. chagasi promastigotes = settings: cited from earlier work
[3] = system: L. amazonensis promastigotes; settings: cited from earlier work
[4] = system: promastigotes of L. infantum chagasi; design: method as in PMID 27591136; settings: up to the dose of 750 μg mL^−1; cited from earlier work
L929 fibroblasts = assay: Cytotoxicity on L929 fibroblasts (MTT assay); type: cell-based; settings: intensity scale of Rodrigues et al.; for Cytotoxicity class (symbol) at 50 µg mL^−1: 50 µg mL^−1, 24 h; for Cytotoxicity class (symbol) at 50 µg mL^−1 / Cytotoxicity class (symbol) at 100 µg mL^−1: MTT; for Cytotoxicity class (symbol) at 100 µg mL^−1: 100 µg mL^−1, 24 h
Protocol: as §1, §2, §3

[5] = system: L. donovani promastigotes; design: method as in PMID 18095647; settings: cited from earlier work
[6] = system: promastigotes of L. infantum; design: method as in PMID 24365244; settings: doses up to 400 μg mL^−1; cited from earlier work
[7] = system: promastigotes of L. tropica; design: method as in PMID 24365244; settings: doses up to 400 μg mL^−1; cited from earlier work
[8] = system: promastigotes of L. major; design: method as in PMID 24365244; settings: doses up to 400 μg mL^−1; cited from earlier work
L. panamensis = system: L. panamensis; design: method as in earlier work; settings: cited from earlier work
[9] = Leishmania amazonensis, 24 h, promastigotes, 24 h incubation, resazurin method, mean ± SD of three independent experiments in triplicate, read-out: IC50
[10] = Leishmania amazonensis, 24 h, promastigotes, 24 h incubation, resazurin method, mean ± SD of three independent experiments in triplicate, read-out: IC50 (µg mL^−1)
[11] = L. chagasi promastigotes, ref 28
[12] = Leishmania amazonensis, 24 h, read-out: IC50 (µg mL^−1)

Row | Structure (SMILES) | IC50 [1, 9] [µM] | IC50 [1, 10] [µg/mL] | IC50 (L. chagasi promastigotes; [11]) [µg/mL] | viability at 24 h, 50 µg mL^−1 ([2]; L929 fibroblast cells) [%] | viability at 24 h, 100 µg mL^−1 ([2]; L929 fibroblast cells) [%] | Cytotoxicity class (symbol) at 50 µg mL^−1 (L929 fibroblasts) | Cytotoxicity classification in words at 50.0 μg mL^−1 (L929 fibroblasts) | Cytotoxicity class (symbol) at 100 µg mL^−1 (L929 fibroblasts) | other results
1 | C=C(C)[C@@H]1CC=C(C)C(=O)C1 [(−)-Carvone, (5R)-2-methyl-5-prop-1-en-2-ylcyclohex-2-en-1-one] | 1300 ± 113 | 195 ± 16.9 | > 300.0 |  |  |  |  |  | viability at 24 h, 50 µg mL^−1 [2]: 65.1 ± 4.7%; viability at 24 h, 100 µg mL^−1 [2]: 58.2 ± 4.2%
2 | C=C[C@](C)(O)CCC=C(C)C [(−)-Linalool, (3R)-3,7-dimethylocta-1,6-dien-3-ol] | 1790 ± 156 | 276 ± 24 |  | 65.7 ± 8.2 | 66.7 ± 7.8 |  |  |  | IC50 ([3]; L. amazonensis promastigotes): 0.0043 µg/mL (≈ 0.0279 µM); Changes in the viability of promastigotes in words [4]: did not identify changes in the viability
3 | CC(C)[C@@H]1CC[C@@H](C)C[C@H]1O [(−)-Menthol, (1R,2S,5R)-5-methyl-2-propan-2-ylcyclohexan-1-ol] | 1270 ± 76.8 | 198 |  | 83.8 ± 8 | 81.2 ± 2.4 | ** (Non-cytotoxic (viability >80%)) | non-cytotoxic | ** (Non-cytotoxic (viability >80%)) | IC50 ([1]; promastigotes, 24 h incubation, resazurin method, mean ± SD of three independent experiments in triplicate, listed as (–)-Menthol (7)): 198.9 ± 12.0 µg/mL
4 | C[C@@H]1[C@H](O)[C@@H](C)/C=C/C=C/C=C/C=C/C=C/C=C/C=C/[C@H](O[C@@H]2O[C@H](C)[C@@H](O)[C@H](N)[C@@H]2O)C[C@@H]2O[C@](O)(C[C@@H](O)C[C@@H](O)[C@H](O)CC[C@@H](O)C[C@@H](O)CC(=O)O[C@H]1C)C[C@H](O)[C@H]2C(=O)O [Amphotericin B, reference compound] | 0.054 ± 0.01 | 0.05 ± 0.01 |  |  |  |  |  |  | 
5 | Cc1ccc(C(C)C)cc1O [Carvacrol, 2-methyl-5-propan-2-ylphenol] |  |  | 28.0 (≈ 186 µM) | 51.3 ± 3 | 46.1 ± 2.9 |  |  | * (Moderate cytotoxicity (viability between >30% and <50%)) | IC50 ([1]; Leishmania amazonensis, 24 h): 169 ± 16 µM; IC50 [1, 12]: 25.4 ± 2.4 µg/mL; Cytotoxicity classification in words at 100.0 μg mL^−1 (L929 fibroblasts): moderate cytotoxicity; IC50 (L. chagasi promastigotes; L. chagasi promastigotes, ref 27): 2.3 µg/mL (≈ 15.3 µM); IC50 ([3]; L. amazonensis promastigotes, 72 h incubation, p-nitrophenol phosphate): 15.3 µg/mL (≈ 102 µM)
6 | CC1=CCC2C(C1)C2(C)C (stereo not shown) [Compound 3-Carene, 4,7,7-trimethylbicyclo[4.1.0]hept-3-ene] | 532 ± 136 | 72.5 ± 18.5 |  | 84.1 ± 6.4 | 48.7 ± 6.7 | ** (Non-cytotoxic (viability >80%)) | non-cytotoxic | * (Moderate cytotoxicity (viability between >30% and <50%)) | Cytotoxicity classification in words at 100.0 μg mL^−1 (L929 fibroblasts): moderate cytotoxicity; IC50 [5]: 27.0 µg/mL (≈ 198 µM)
7 | C=CCc1ccc(O)c(OC)c1 [Eugenol, 2-methoxy-4-prop-2-enylphenol] |  |  |  | 78.1 ± 7 | 63.1 ± 1.7 |  |  |  | IC50 ([1]; Leishmania amazonensis, 24 h): 505 ± 37.8 µM; IC50 [1, 12]: 82.9 ± 6.2 µg/mL; IC50 (L. chagasi promastigotes; promastigote forms of L. chagasi): 56.1 µg/mL (≈ 342 µM)
8 | CC1(C)[C@@H]2CC[C@@]1(C)[C@H](O)C2 [Isoborneol, (1R,3R,4R)-4,7,7-trimethylbicyclo[2.2.1]heptan-3-ol] | 1230 ± 63.5 | 190 ± 9.8 |  | 73.3 ± 9.4 | 72.9 ± 7.5 |  |  |  | Leishmanicidal activity in words [6]: No leishmanicidal activity was found; Leishmanicidal activity in words [7]: No leishmanicidal activity was found; Leishmanicidal activity in words [8]: No leishmanicidal activity was found
9 | Cc1ccc(C(C)C)c(O)c1 [Thymol, 5-methyl-2-propan-2-ylphenol] | 178 ± 24.6 | 26.8 ± 3.7 |  | 64.5 ± 4 | 58.5 ± 6.7 |  |  |  | IC50 ([3]; L. amazonensis): 22.6 µg/mL (≈ 150 µM); IC50 (L. panamensis): 194.3 µg/mL (≈ 1290 µM)
10 | Cc1ccc(C(C)C)cc1 [p-Cymene, 1-methyl-4-propan-2-ylbenzene] | > 7450 | > 1000 | 149.1 (≈ 1110 µM) | 91.2 ± 6.6 | 87.1 ± 6.7 | ** (Non-cytotoxic (viability >80%)) | non-cytotoxic | ** (Non-cytotoxic (viability >80%)) | Activity against L. amazonensis promastigotes in words [1]: no effect on the viability; Activity against L. amazonensis promastigotes in words ([1]; listed as p-cymene): did not exhibit any activity
